Results on 20 compounds are retold here after patent publication US9656988B2 (Pharmacyclics LLC, priority 2013, dated 2017).

This experiment deals with BTK (Homo sapiens (Human), UniProt Q06187). Put plainly: Btk in vitro inhibitory activity (one of Method A TR-FRET, Method B electrophoretic mobility shift, Method C radiometric filter binding). The experiment is classed as biochemical. In general terms: A gel shift assay detects complexes by their altered migration in electrophoresis.
The mark [1] stands for this setting: determined using one of the methods of Example 355a, 355b and 355c, read-out: BTK IC50.

Where two headings read alike, the source gives them in different places. Bounds are passed on as bounds.

Chain of BTK (Q06187 whole entry): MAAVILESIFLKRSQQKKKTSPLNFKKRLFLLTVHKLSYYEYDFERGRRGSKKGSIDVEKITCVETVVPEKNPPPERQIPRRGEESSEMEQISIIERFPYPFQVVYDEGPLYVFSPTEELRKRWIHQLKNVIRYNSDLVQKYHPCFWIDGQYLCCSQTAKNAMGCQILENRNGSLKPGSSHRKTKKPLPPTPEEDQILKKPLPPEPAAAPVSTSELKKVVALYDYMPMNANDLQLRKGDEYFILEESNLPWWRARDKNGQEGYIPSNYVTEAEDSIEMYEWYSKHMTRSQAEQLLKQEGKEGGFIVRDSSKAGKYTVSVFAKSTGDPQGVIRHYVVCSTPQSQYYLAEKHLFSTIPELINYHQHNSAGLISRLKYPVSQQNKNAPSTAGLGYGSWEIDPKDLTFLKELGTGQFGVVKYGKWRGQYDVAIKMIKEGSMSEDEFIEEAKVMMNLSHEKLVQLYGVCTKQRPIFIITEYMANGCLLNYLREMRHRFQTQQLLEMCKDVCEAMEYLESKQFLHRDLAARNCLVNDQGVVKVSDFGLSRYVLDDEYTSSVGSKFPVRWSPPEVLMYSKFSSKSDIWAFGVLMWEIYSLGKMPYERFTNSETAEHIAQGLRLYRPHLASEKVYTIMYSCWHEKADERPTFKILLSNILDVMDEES

In the case of `CN(C)C(=O)N[C@@H]1CCCN(c2cnc(C(N)=O)c(Nc3ccc(N4CCN(C5CC5)CC4)cc3)n2)C1` [Example 214, (R)-3-(4-(4-cyclopropylpiperazin-1-yl)phenylamino)-5-(3-(3,3-dimethylureido)piperidin-1-yl)pyrazine-2-carboxamide], the IC50 is below 10 nM under setting [1] and below 10 nM (read-out: Btk (IC50)). Take `CN(C)C(=O)N[C@@H]1CCCN(c2cnc(C(N)=O)c(Nc3ccc(N4CCN(C5CCCC5)CC4)cc3)n2)C1` [Example 215, (R)-3-(4-(4-cyclopentylpiperazin-1-yl)phenylamino)-5-(3-(3,3-dimethylureido)piperidin-1-yl)pyrazine-2-carboxamide]: the IC50 runs as follows: under setting [1], below 10 nM; (read-out: Btk (IC50)) below 10 nM. Consider `CN(C)C(=O)N[C@@H]1CCCN(c2cnc(C(N)=O)c(Nc3cnn(C4CC4)c3)n2)C1` [Example 216, (R)-3-(1-cyclopropyl-1H-pyrazol-4-ylamino)-5-(3-(3,3-dimethylureido)piperidin-1-yl)pyrazine-2-carboxamide], for which, under setting [1], the IC50 was in the range of 10 to 100 nM. Consider `CN(C)C(=O)N[C@@H]1CCCN(c2cnc(C(N)=O)c(Nc3cnn(C4CCCC4)c3)n2)C1` [Example 217, (R)-3-(1-cyclopentyl-1H-pyrazol-4-ylamino)-5-(3-(3,3-dimethylureido)piperidin-1-yl)pyrazine-2-carboxamide], for which the IC50 under setting [1] lay in the range of 10 to 100 nM. On the same count and under the same terms, in the case of `CN(C)C(=O)N[C@@H]1CCCN(c2cnc(C(N)=O)c(Nc3cnn(C4CCN(C5CCCC5)CC4)c3)n2)C1` [Example 218, (R)-3-(1-(1-cyclopentylpiperidin-4-yl)-1H-pyrazol-4-ylamino)-5-(3-(3,3-dimethylureido)piperidin-1-yl)pyrazine-2-carboxamide] it was below 10 nM. With `CN(C)C(=O)N[C@@H]1CCCN(c2cnc(C(N)=O)c(Nc3cnn(C4CCN(C(=O)C5CC5)CC4)c3)n2)C1` [Example 219, (R)-3-(1-(1-(cyclopropanecarbonyl)piperidin-4-yl)-1H-pyrazol-4-ylamino)-5-(3-(3,3-dimethylureido)piperidin-1-yl)pyrazine-2-carboxamide], the IC50 by setting is: (Btk (IC50)) 10 to 100 nM; under setting [1], 10 to 100 nM. On to `CN(C)C(=O)N[C@@H]1CCCN(c2cnc(C(N)=O)c(Nc3ccc(C4(C)CCNCC4)cc3)n2)C1` [Example 221, (R)-5-(3-(3,3-dimethylureido)piperidin-1-yl)-3-(4-(4-methylpiperidin-4-yl)phenylamino)pyrazine-2-carboxamide], for which the IC50 runs as follows: under setting [1], below 10 nM; (read-out: Btk (IC50)) below 10 nM. For `CN(C)C(=O)N[C@@H]1CCCN(c2cnc(C(N)=O)c(Nc3ccc(C4(C)CCN(C5CCCC5)CC4)cc3)n2)C1` [Example 222, (R)-3-(4-(1-cyclopentyl-4-methylpiperidin-4-yl)phenylamino)-5-(3-(3,3-dimethylureido)piperidin-1-yl)pyrazine-2-carboxamide], the IC50 under setting [1] was below 10 nM and the IC50 (read-out: Btk (IC50)) is below 10 nM. For `CN(C)C(=O)N[C@@H]1CCCN(c2cnc(C(N)=O)c(Nc3ccc(C4(C)CCN(C(=O)N(C)C)CC4)cc3)n2)C1` [Example 223, (R)-3-(4-(1-(dimethylcarbamoyl)-4-methylpiperidin-4-yl)phenylamino)-5-(3-(3,3-dimethylureido)piperidin-1-yl)pyrazine-2-carboxamide], the half-inhibitory concentration (IC50) was below 10 nM under setting [1] and below 10 nM (read-out: Btk (IC50)).

On to `CCC(=O)N1CCC(C)(c2ccc(Nc3nc(N4CCC[C@@H](NC(=O)N(C)C)C4)cnc3C(N)=O)cc2)CC1` [Example 224], for which the IC50 under setting [1] was below 10 nM. Turning to `CN(C)C(=O)N(C)[C@@H]1CCCN(c2cnc(C(N)=O)c(Nc3ccc(C4CCN(C5CCCC5)CC4)cc3)n2)C1` [Example 225, (R)-3-(4-(1-cyclopentylpiperidin-4-yl)phenylamino)-5-(3-(1,3,3-trimethylureido)piperidin-1-yl)pyrazine-2-carboxamide], the half-inhibitory concentration (IC50) (Btk (IC50)) lay in the range of 10 to 100 nM and the IC50 under setting [1] was below 10 nM.

Turning to `CN(C)C(=O)N1CCC(c2ccc(Nc3nc(N4CCC[C@@H](N(C)C(=O)N(C)C)C4)cnc3C(N)=O)cc2)CC1` [Example 226, (R)-3-(4-(1-(dimethylcarbamoyl)piperidin-4-yl)phenylamino)-5-(3-(1,3,3-trimethylureido)piperidin-1-yl)pyrazine-2-carboxamide], the IC50 runs as follows: (Btk (IC50)) 10 to 100 nM; under setting [1], 10 to 100 nM. Turning to `CCC(=O)N1CCC(c2ccc(Nc3nc(N4CCC[C@@H](N(C)C(=O)N(C)C)C4)cnc3C(N)=O)cc2)CC1` [Example 227, (R)-3-(4-(1-propionylpiperidin-4-yl)phenylamino)-5-(3-(1,3,3-trimethylureido)piperidin-1-yl)pyrazine-2-carboxamide], the IC50 by setting is: (Btk (IC50)) 10 to 100 nM; under setting [1], 10 to 100 nM. Turning to `CN(C)C(=O)N(C)[C@@H]1CCCN(c2cnc(C(N)=O)c(Nc3ccc(C4CCN(S(C)(=O)=O)CC4)cc3)n2)C1` [Example 228, (R)-3-(4-(1-(methylsulfonyl)piperidin-4-yl)phenylamino)-5-(3-(1,3,3-trimethylureido)piperidin-1-yl)pyrazine-2-carboxamide], the IC50 was 10 to 100 nM. Moreover, the IC50 under setting [1] fell in the range of 10 to 100 nM. Take `CN(C)C(=O)N(C)[C@@H]1CCCN(c2cnc(C(N)=O)c(Nc3ccc(N4CCS(=O)(=O)CC4)cc3)n2)C1` [Example 229, (R)-3-(4-(1,1-dioxothiomorpholino)phenylamino)-5-(3-(1,3,3-trimethylureido)piperidin-1-yl)pyrazine-2-carboxamide]: the IC50 lay within 10 to 100 nM. For the same compound, under setting [1], the IC50 was 10 to 100 nM. Turning to `C[C@@H]1[C@H](N)CCCN1c1cnc(C(N)=O)c(Nc2ccc(C3CCN(C4CCCC4)CC3)cc2)n1` [Example 230, 5-((2R,3R)-3-amino-2-methylpiperidin-1-yl)-3-(4-(1-cyclopentylpiperidin-4-yl)phenylamino)pyrazine-2-carboxamide], the IC50 (Btk (IC50)) lay within 10 to 100 nM and the IC50 under setting [1] lay in the range of 10 to 100 nM.

As for `C[C@H]1[C@H](N)CCCN1c1cnc(C(N)=O)c(Nc2ccc(C3CCN(C4CCCC4)CC3)cc2)n1` [Example 231, 5-((2S,3R)-3-amino-2-methylpiperidin-1-yl)-3-(4-(1-cyclopentylpiperidin-4-yl)phenylamino)pyrazine-2-carboxamide], the IC50 lay within 100 to 1000 nM (Btk (IC50)) and 100 to 1000 nM under setting [1]. For the compound `C[C@@H]1[C@H](NC(=O)N(C)C)CCCN1c1cnc(C(N)=O)c(Nc2ccc(C3CCN(C4CCCC4)CC3)cc2)n1` [Example 232, 3-(4-(1-cyclopentylpiperidin-4-yl)phenylamino)-5-((2R,3R)-3-(3,3-dimethylureido)-2-methylpiperidin-1-yl)pyrazine-2-carboxamide], the IC50 reads like this: under setting [1], below 10 nM; (read-out: Btk (IC50)) below 10 nM. For `C[C@H]1[C@H](NC(=O)N(C)C)CCCN1c1cnc(C(N)=O)c(Nc2ccc(C3CCN(C4CCCC4)CC3)cc2)n1` [Example 233, 3-(4-(1-cyclopentylpiperidin-4-yl)phenylamino)-5-((2S,3R)-3-(3,3-dimethylureido)-2-methylpiperidin-1-yl)pyrazine-2-carboxamide], the half-inhibitory concentration (IC50) runs as follows: (Btk (IC50)) 100 to 1000 nM; under setting [1], 100 to 1000 nM. As for `CC[C@@H]1[C@H](NC(=O)N(C)C)CCCN1c1cnc(C(N)=O)c(Nc2ccc(C3CCN(C4CCC4)CC3)cc2)n1` [Example 236, 3-(4-(1-cyclobutylpiperidin-4-yl)phenylamino)-5-((2R,3R)-3-(3,3-dimethylureido)-2-ethylpiperidin-1-yl)pyrazine-2-carboxamide], the IC50 runs as follows: under setting [1], below 10 nM; (read-out: Btk (IC50)) below 10 nM.

In general, IC50 refers to the concentration at which inhibition is half-maximal.
